In patent US20060185030A1, “Cytokinin response regulators and uses thereof” (priority 2001, published 2006):

Legend:
ARR6 promoter = assay: Arabidopsis mesophyll protoplast transient expression assay, ARR6-LUC reporter; format: cell-based; details: for activity of ARR6-LUC (hormone specificity): 100 nM t-zeatin, 1 μM IAA or 100 μM ABA, 3 hours of incubation; for induction of the reporter gene ARR6-LUC by cytokinin analogues: 100 nM, FIG. 1C; for activation of ARR6-LUC by over-expressed effector: absence of exogenous cytokinin
Experimental: To elucidate the regulatory circuitry in cytokinin signal transduction, a leaf cell assay based on cytokinin inducible transcription in Arabidopsis mesophyll protoplasts was developed. The 2.4 kb promoter of an Arabidopsis cytokinin primary response gene (SEQ ID NO.: 1), encoding the response regulator 6 (ARR6), was fused to the firefly luciferase (LUC) reporter. In FIG. 1A, transfected protoplasts were incubated with or without 100 nM t-zeatin, 1 μM indole-3-acetic acid (IAA), or 100 μM ABA. After 3 hours of incubation, LUC and GUS activities were determined.
(§1) Arabidopsis Bensheim (BE) protoplasts were isolated and transfected as described with some modifications (Kovtun et al., Proc. Natl. Acad. Sci. USA 97: 2940-5 2000). […] For instance, in the experiments shown in FIG. 1A, protoplasts (4×10^4) were transfected with 2 μg of UBQ10-GUS (internal control) and 20 μg of ARR6-LUC, GH3-LUC, or RD29ALUC plasmid DNA. Transfected protoplasts were incubated at 1×10^4 per mil with/without 1-100 nM of t-zeatin for 3-6 hours under the light at 23° C. The UBQ10-GUS construct was used as an internal control to normalize the variations of each transfection in cell numbers, transformation efficiency and cell viability. […] GFP fluorescence was observed by either Nikon TE200 fluorescent microscopy or Leica TCSNT confocal microscopy.

GH3 promoter = assay: Arabidopsis mesophyll protoplast transient expression assay, GH3-LUC reporter; format: cell-based; details: 1 μM IAA, 3 hours
Arabidopsis seedlings = assay: Seedling cytokinin response assay; format: in vivo; details: medium with 0.15 mg/L IAA alone or with 0.15 mg/L IAA and 5 mg/L 2IP, 14 days
Text: In tissue culture, induction of cell proliferation and subsequent shoot formation require cytokinin. To determine whether the same cytokinin signalling pathway is responsible for transcription regulation, cell proliferation, shoot meristem initiation, and leaf formation, we developed a seedling cytokinin response assay. In FIGS. 4A and 4B, Arabidopsis seedlings were transformed with Agrobacteria carrying GFP, CKI1, CKI1 (H405Q), ARR2, and ARR6 constructs in the mini-binary vector pCB302 (Xiang et al., Plant Mol. Biol. 40: 711-7, 1999). Seedlings transformed with the Agrobacteria carrying the binary vector pCB301 […] a Bar selection marker were used as a transformation control (vector). The transformed seedlings were selected with glufosinate ammonium (10 μg/ml) and maintained on medium with auxin (IAA) only (FIG. 4A, +IAA, −2IP) or with auxin and cytokinin (FIG. 4B, +IAA, +2IP) for 14 days. The transformed tissues were mostly derived from the shoot apical meristem. […] Both CKI1 and ARR2 promoted extensive cell proliferation and shoot formation even without exogenous cytokinin. The experiments were repeated three times with similar results. […] The results of this cytokinin seedling assay are consistent with those from protoplast transient expression analyses based on transcription. […]

RD29A promoter = assay: Arabidopsis mesophyll protoplast transient expression assay, RD29A-LUC reporter; format: cell-based; details: 100 μM ABA, 3 hours
CKI1-GFP = assay: GFP fusion expression and localization in transfected protoplasts (confocal microscopy); format: cell-based, Arabidopsis; details: tunicamycin 1 μg/ml, 12 hours
Experimental: To gain insight into where the cytokinin signalling is perceived, the sub-cellular localization of CKI1 was examined using the CKI1-GFP fusion. We first confirmed that CKI1-GFP acted similarly as CKI1-HA in the protoplast assay based on ARR6-LUC activation (FIG. 1D). […] Specifically, protoplasts were transfected with CKI1-GFP or various GFP marker plasmid DNA. Tunicamycin (1 μg/ml) treatment was for 12 hours. The transfected protoplasts were analyzed with a confocal microscope. The subcellular GFP markers are “CAT-GFP” for the cytosol, “ER-GFP” for the endoplasmic reticulum, and “N-GFP” (HSP-GFP) for the nucleus. Since the N-terminus of CKI1 is replete with putative glycosylation sites, the effect of a glycosylation inhibitor, tunicamycin, in CKI1-GFP expression, localization or function was examined.

AHP1-GFP = details: 100 nM t-zeatin, 30 minutes
Experimental: (§2) To gain further in vivo support for the involvement of AHPs in cytokinin signalling, the action of AHP1-GFP in transfected protoplast in the absence or presence of cytokinin was followed using fluorescence microscopy. Specifically, protoplasts were transfected with AHP1-GFP, AHP2-GFP, or AHP5-GFP and incubated for 3 hours to allow sufficient expression.
as §1

AHP5-GFP = details: 100 nM t-zeatin, 30 minutes
Experimental: as §2, §1

Molecule: O=C(O)Cc1c[nH]c2ccccc12 [IAA, indole-3-acetic acid]
- activity of ARR6-LUC (hormone specificity) (ARR6 promoter): not by other plant hormones
- GH3 promoter activation (GH3 promoter): only activated
- callus / shoot formation of GFP control transformed seedlings (Arabidopsis seedlings): green callus formation

Molecule: CC1=CC(=O)CC(C)(C)[C@@]1(O)/C=C/C(C)=C\C(=O)O [ABA, abscisic acid]
- activity of ARR6-LUC (hormone specificity) (ARR6 promoter): not by other plant hormones
- RD29A promoter induction (RD29A promoter): solely induced

Molecule: c1ccc(CNc2ncnc3nc[nH]c23)cc1 [BA, benzyladenine]
- induction of the reporter gene ARR6-LUC by cytokinin analogues (ARR6 promoter): induced

Molecule: tunicamycin
- expression of CKI1-GFP (CKI1-GFP): completely abolished
- expression of other GFP constructs (CKI1-GFP; CAT-GFP, ER-GFP, N-GFP markers): did not affect

Molecule: C/C(=C\CNc1ncnc2nc[nH]c12)CO [t-zeatin, trans-zeatin]
- activity of ARR6-LUC (hormone specificity) (ARR6 promoter): specifically induced
- induction of the reporter gene ARR6-LUC by cytokinin analogues (ARR6 promoter): induced
- AHP1-GFP localization after cytokinin treatment (AHP1-GFP): translocated into the nucleus
- AHP5-GFP cytokinin-dependent translocation (AHP5-GFP): not

B1: ARR10: Arabidopsis B-type response regulator (SEQ ID NO.: 9), over-expressed from effector plasmid (protein, listed as Arabidopsis thaliana)
chain: MTMEQEIEVLDQFPVGMRVLAVDDDQTCLRILQTLLQRCQYHVTTTNQAQTALELLRENKNKFDLVISDVDMPDMDGFKLLELVGLEMDLPVIMLSAHSDPKYVMKGVKHGACDYLLKPVRIEELKNIWQHVVRKSKLKKNKSNVSNGSGNCDKANRKRKEQYEEEEEEERGNDNDDPTAQKKPRVLWTHELHNKFLAAVDHLGVERAVPKKILDLMNVDKLTRENVASHLQKFRVALKKVSDDAIQQANRAAIDSHFMQMNSQKGLGGFYHHHRGIPVGSGQFHGGTTMMRHYSSNRNLGRLNSLGAGMFQPVSSSFPRNHNDGGNILQGLPLEELQINNNINRAFPSFTSQQNSPMVAPSNLLLLEGNPQSSSLPSNPGFSPHFEISKRLEHWSNAALSTNIPQSDVHSKPDTLEWNAFCDSASPLVNPNLDTNPASLCRNTGFGSTNAAQTDFFYPLQMNQQPANNSGPVTEAQLFRSSNPNEGLLMGQQKLQSGLMASDAGSLDDIVNSLMTQEQSQSDFSEGDWDLDGLAHSEHAYEKLHFPFSLSA
- activation of ARR6-LUC by over-expressed effector (ARR6 promoter): about 10 fold
- further enhancement by cytokinin of effector's effect on ARR6-LUC activity (ARR6 promoter; with cytokinin, relative to effector alone): 10-20 fold

B2: ARR2: Arabidopsis B-type response regulator (SEQ ID NO.: 3), over-expressed from effector plasmid (protein, listed as Arabidopsis thaliana)
chain: MVNPGHGRGPDSGTAAGGSNSDPFPANLRVLVVDDDPTCLMILERMLMTCLYREQRAHCLCFGRTKNGFDIVISDVHMPDMDGFKLLEHVGLEMDLPVINLNVLKPLVIVMSADDSKSVVLKGVTHGAVDYLIKPVRIEALKNIWQHVVRKKRNEWNVSEHSGGSIEDTGGDRDRQQQHREDADNNSSSVNEGNGRSSRKRKEEEVDDQGDDKEDSSSLKKPRVVWSVELHQQFVAAVNQLGVDSELKTCLLMHLCVSIGNIVEFQKYRIYLRRLGGVSQHQGNMNHSFMTGQDQSFGPLSSLNGFDLQSLAVTGQLPPQSLAQLQAAGLGRPTLAKPGMSVSPLVDQRSIFNFENPKIRFGDGHGQTMNNGNLLHGVPTGSHMRLRPGQNVQSSGMMLPVADQLPRGGPSMLPSLGQQPILSSSVSRRSDLTGALAVRNSIPETNSRVLPTTHSVFNNFPADLPRSSFPLASAPGISVPVSVSYQEEVNSSDAKGGSSAATAGFGNPSYDIFNDFPQHQQHNKNISNKLNDWDLRNMGLVFSSNQDAATATATAAFSTSEAYSSSSTQRKRRETDATVVGEHGQNLQSPSRNLYHLNHVFMDGGSVRVKSERVAETVTCPPANTLFHEQYNQEDLMSAFLKQV
- activation of ARR6-LUC by over-expressed effector (ARR6 promoter): ~400 fold
- activation of ARR6-LUC by over-expressed effector with cytokinin treatment (ARR6 promoter; with cytokinin (100 nM t-zeatin, 3 hours)): over 1000 fold

B3: ARR1: Arabidopsis B-type response regulator (SEQ ID NO.: 2), over-expressed from effector plasmid (protein, listed as Arabidopsis thaliana)
chain: MALSLLRKNKHGFDIVISDVHMPDMDGFKLLEHVGLEMDLPVIMMSADDSKSVVLKGVTHGAVDYLIKPVRMEALKNIWQHVVRKRRSEWSVPEHSGSIEETGERQQQQHRGGGGGAAVSGGEDAVDDNSSSVNEGNNWRSSSRKRKDEEGEEQGDDKDEDASNLKKPRVVWSVELHQQFVAAVNQLGVEKAVPKKILELMNVPGLTRENVASHLQKYRIYLRRLGGVSQHQGNLNNSFMTGQDASFGPLSTLNGFDLQALAVTGQLPAQSLAQLQAAGLGRPAMVSKSGLPVSSIVDERSIFSFDNTKTRFGEGLGHHGQQPQQQPQMNLLHGVPTGLQQQLPMGNRMSIQQQIAAVRAGNSVQNNGMLMPLAGQQSLPRGPPPMLTSSQSSIRQPMLSNRISERSGFSGRNNIPESSRVLPTSYTNLTTQHSSSSMPYNNFQPELPVNSFPLASAPGISVPVRKATSYQEEVNSSEAGFTTPSYDMFTTRQNDWDLRNIGIAFDSHQDSESAAFSASEAYSSSSMSRHNTTVAATEHGRNHQQPPSGMVQHHQVYADGNGGSVRVKSERVATDTATMAFHEQYSNQEDLMSALLKQEGIAPVDGEFDFDAYSIDNIPV
- activation of ARR6-LUC by over-expressed effector (ARR6 promoter): about 40 fold
